From patent publication US20240307283A1, “COMPOSITIONS AND METHODS FOR DECREASING PIGMENTATION” (The General Hospital Corporation, priority 2021, published 2024)
Peptide text beside a SMILES is read from it. * marks the point of attachment. Cbz = O=C(OCc1ccccc1)*

Legend:
[1] = test system: human skin explants; experiment: Depigmentation of human skin explants by NNT activators; format: cell-based; details: for ability to depigment skin: after 36 hours, FIGS. 13A-B; for ability to depigment skin / Dose needed to depigment within 36 h (skin type 2): DMSO-based carrier; for Dose needed to depigment within 36 h (skin type 2): single dose or lower end of the dose range
Description: (§1) Skin samples considered surgical waste were obtained de-identified from healthy donors (IRB #2013P000093) undergoing reconstructive surgery, according to institutional regulations. Full thickness human abdominal skin explants were cultured in petri dishes with a solid phase and liquid phase phenol red free DMEM medium containing 20% penicillin/streptomycin/glutamine, 5% fungizone (Gibco), and 10% fetal bovine serum. Compounds were applied strictly on top of the explants, making sure no drip occurred into the underlying media. For UV irradiation experiments, a UV lamp (UV Products) was used at 1000 mJ/cm^2 UVB.
The ability of ASS, Usnic acid, 4-hexylresorcinol, candesartan, Nigericin, elaidylphosphocholine, hexitidine, naproxol, and Ginkgolic acid to depigment skin was tested in human skin explants. A DMSO-based carrier solution was used. DMSO was used as a negative control. […]

[2] = test system: human skin explants (Fitzpatrick skin type 2); experiment: Prevention of UVB-driven pigmentation in human skin explants; format: cell-based; details: UVB 150 mJ/cm^2
Description: as §1
The ability of a number of NNT activators to prevent UVB-driven pigmentation of skin was evaluated in human skin explants (Fitzpatrick skin type 2) with application of UVB 150 mJ/cm^2. […]

[3] = test system: mouse B16 melanoma cells; experiment: In vitro depigmentation of B16 melanoma cells; format: cell-based; details: 2 uM or 10 uM, DMSO-based carrier, 1-5 days (average 1.5 days), FIG. 12A
Description: (§2) The ability of 2 uM or 10 uM ASS, Usnic acid, 4-hexylresorcinol, candesartan, Nigericin, and Ginkgolic acid to depigment was evaluated in mouse B16 melanoma cells and melan-A melanocytes. A DMSO-based carrier solution was used, and the experiments carried out for 1-5 days, with an average of 1.5 days. 4-n-Butylresorcinol, N-Acetylcystein (NAC), and Phenylthiourea (PTU), were used as a positive control, and DMSO as a negative control.

[4] = test system: mouse melan-A melanocytes; experiment: In vitro depigmentation of melan-A melanocytes; format: cell-based; details: 2 uM or 10 uM, DMSO-based carrier, 1-5 days (average 1.5 days), FIG. 12B
Description: Murine Melan-A (Bennett et al., 1987) cells were obtained from the Wellcome Trust Functional Genomics Cell Bank. Melan-A cells were grown in RPMI 1640 supplemented with 10% FBS or FetalPlex (Gemini Bio-Products, #100-602), 100,000 U/L penicillin, 100 mg/L streptomycin sulphate, 100× Glutamax, and 200 nM TPA.
as §2

[5] = test system: NNT; experiment: Immunoblot of NNT after redox modulators; format: cell-based, human; details: UACC257, NAC 5 mM, MitoTEMPO 20 μM, H2O2 100 μM, daily for 72 hours
Description: Immunoblotting: Whole-cell protein lysates were prepared using RIPA lysis buffer (Sigma-Aldrich, #R0278) supplemented with Protease and Phosphatase Inhibitor (ThermoFisher Scientific, #P178445). Protein concentrations were quantified using the Pierce BCA protein assay (ThermoFisher Scientific, #23225). Immunoblotting was performed by standard techniques using 4-15% Criterion TGX Precast Midi Protein gels (Bio-Rad Laboratories, #5671084) and transferring to 0.2 μm nitrocellulose membranes (Bio-Rad Laboratories, #1620112). Membranes were blocked with 5% non-fat milk (Boston BioProducts, #P-1400) in PBS containing 0.1% […] and incubated with one of the following primary antibodies at the indicated dilution (antibody sources are in the Key Resources Table): 1:20 dilution of anti-MITF monoclonal antibody CS, 1:1,000 dilution of anti-Tyrosinase clone T311, 1:1,000 dilution of anti-Mitofusin-2 antibody [6A8], 1:500 dilution of TRP2/DCT antibody, 1:1,000 dilution of anti-NNT antibody [8B4BB10], 1:1,000 dilution of anti-IDH1 ([…]) antibody, 1:1,000 dilution of p53 antibody [PAb 240], 1:1,000 dilution of TYRP1 antibody [EPR21960], 1:1,000 dilution of mouse monoclonal antibody Pmel17 (E-7), or 1:1,000 dilution of LC3B (D11) rabbit monoclonal antibody. Incubation with the appropriate secondary antibody followed, either a 1:5,000 dilution of donkey anti-Rabbit IgG-HRP or a 1:3,000 dilution of Amersham ECL mouse IgG, HRP. To verify equal loading of samples, membranes were re-probed with a 1:20,000 dilution of monoclonal anti-β-actin-peroxidase (Sigma Aldrich, #A3854). Protein bands were visualized using Western Lightning Plus ECL (PerkinElmer, #NEL105001EA) and quantified using ImageJ software (NIH).

[6] = test system: tyrosinase; experiment: Cycloheximide chase assay of tyrosinase protein stability; format: cell-based, human; details: then CHX
Description: Cycloheximide chase assay: 72 h after siRNA transfection (sicontrol or siNNT), UACC257 melanoma cells were treated with a protein synthesis inhibitor, cyclohexamide (CHX, Sigma Aldrich #C7698, 50 μg/ml), for the indicated times and then immediately subjected to immunoblotting for tyrosinase protein expression. The expression of tyrosinase was quantified using ImageJ software based on band intensities and normalized to the intensities of the corresponding β-actin bands. The normalized tyrosinase expression was then defined as relative tyrosinase expression by setting the mean values at t=0 in each experimental group to 1.0. […] The siRNA-transfected cells were cultured for an additional 48 h in the presence of these agents and then examined by the CHX chase assay as described above. pLJM-1-EGFP or pLJM1-NNT/FLAG was introduced into UACC257 cells using Lipofectamine 3000, 48 after transfection, the transfection medium was replaced with fresh medium containing DMSO or 10 μM MG132 (Sigma Aldrich #M8699) and pre-incubated for 6 h. Then. CHX was added to assess tyrosinase protein stability as described above.

[7] = test system: UACC257 cells; experiment: siNNT-induced pigmentation with antioxidants, melanin content; format: cell-based, human; details: NAC 5 mM, MitoTEMPO 20 μM daily for 72 h; NADPH 0.1 M
Description: sIRNA transfection: A single treatment of 10 nmol/L of siRNA was delivered to a 60% confluent culture by transfection with Lipofectamine RNAiMAX (Life Technologies, #13778150) according to the manufacturer's recommendations. After 48-72 h of transfection, total RNA or protein was harvested. Melanin quantification: Equal numbers of cells were plated in 6-well plates. The cells were then harvested 72-96 hours post siRNA or NNT inhibitors compounds, as indicated in the legends, pelleted, washed in PBS and counted. 10^6 cells were used for measurement of protein concentration with the Pierce BCA protein assay (Thermo Fisher Scientific, #23225) and 10^6 cells were resuspended in 60 μl of 1 N NaOH solution and incubated at 60° C. for 2 h or until the melanin was completely dissolved. After cooling down to room temperature, samples were centrifuged at 500×g for 10 min and the supernatants were loaded onto a 96-well plate. The melanin content was determined by measuring the absorbance at 405 nm on an Envision plate reader, compared with a melanin standard (0 to 50 μg/ml; Sigma Aldrich, #M8631). Melanin content was expressed as micrograms per milligram of protein.

SMILES	ability to depigment skin [1]	Dose needed to depigment within 36 h (skin type 2) ([1]; human skin explants)	Dose needed to inhibit UVB-induced tanning (skin type 2) [2]	ability to depigment [3]	ability to depigment [4]	other results
CCCCCCc1ccc(O)cc1O [4-hexylresorcinol]	depigmenting effects	5 µM	1000 µM	depigmenting effects	depigmenting effects	–
CC(=O)Oc1ccccc1C(=O)O [ASS, Acetylsalicylic Acid]	depigmenting effects	≥ 5 µM	10 µM	depigmenting effects	depigmenting effects	–
CCCCCC/C=C\CCCCCCCc1cccc(O)c1C(=O)O [Ginkgolic acid]	depigmenting effects	~50 µM	100 µM	depigmenting effects	depigmenting effects	lightening by Fontana Masson and H&E staining ([1]; FIG. 13C): displayed lightening effects; nuclear capping ([1]; FIG. 13C): Nuclear capping was present; Dose needed to depigment within 36 h (skin type 2), result in words ([1]; human skin explants): n.s.
OO [H2O2, Hydrogen peroxide]	–	–	–	–	–	NNT protein levels [5]: did not impact NNT protein levels
CC(C)C[C@@H](C=O)NC(=O)[C@H](CC(C)C)NC(=O)[C@H](CC(C)C)NC(=O)OCc1ccccc1 [MG132, carbobenzoxy-L-leucyl-L-leucyl-L-leucinal] (Cbz-Leu-Leu-Leu-aldehyde)	–	–	–	–	–	tyrosinase protein stability in NNT-overexpressing cells ([6]; UACC257, 10 μM for 6 h): prevented an NNT overexpression-induced decrease in Tyrosinase protein stability
NC(=O)C1=CN([C@@H]2O[C@H](COP(=O)(O)OP(=O)(O)OC[C@H]3O[C@@H](n4cnc5c(N)ncnc54)[C@H](OP(=O)(O)O)[C@@H]3O)[C@@H](O)[C@H]2O)C=CC1 [NADPH, β-nicontinamide adenine dinucleotide 2′-phosphate]	–	–	–	–	–	siNNT-mediated increase in pigmentation [7]: inhibited the siNNT-mediated increase in pigmentation; siNNT-increased tyrosinase protein stability ([6]; UACC257, 5 mM NAC, 0.1 mM NADPH, 20 μM MitoTEMPO for 48 h): prevented
CO[C@@H]1C[C@@H](C[C@H]2CC[C@H](C)[C@H]([C@@H](C)C(=O)O)O2)O[C@]2(O[C@](C)([C@H]3CC[C@@](C)([C@@H]4O[C@@H]([C@H]5O[C@@](O)(CO)[C@H](C)C[C@@H]5C)C[C@@H]4C)O3)C[C@H]2C)[C@@H]1C [Nigericin]	depigmenting effects	5 µM	10 to 100 µM	depigmenting effects	depigmenting effects	–
CC(=O)c1c(O)c(C)c(O)c2c1OC1=CC(=O)C(C(C)=O)C(=O)C12C (centres unmarked) [Usnic acid, usnic acid]	–	≥ 5 µM	100 µM	–	–	–
CCOc1nc2cccc(C(=O)O)c2n1Cc1ccc(-c2ccccc2-c2nnn[nH]2)cc1 [candesartan, 1-((2′-(1H-Tetrazol-5-yl)-[1,1′-biphenyl]-4-yl)methyl)-2-ethoxy-1H-benzo[d]imidazole-7-carboxylic acid]	depigmenting effects	≥ 50 µM	1000 to 10000 µM	depigmenting effects	depigmenting effects	–
CCCCCCCC/C=C/CCCCCCCCOP(=O)([O-])OCC[N+](C)(C)C [elaidylphosphocholine, [(E)-octadec-9-eny] 2-(trimethylazaniumyl)ethyl phosphate]	depigmenting effects	–	–	–	–	–
